Source: patent US20110071052A1, “MEASUREMENT OF PROTEIN KINASE ACTIVITY IN CEREBROSPINAL FLUID FOR DIAGNOSIS OF NEUROLOGICAL AND PSYCHIATRIC DISORDERS” (priority 2008, published 2011)

How the values were obtained:
[1] = test system: IL-1β induced IL-6 secretion by U373 astrocytoma cells; assay: IL-1β induced IL-6 secretion by U373 astrocytoma cells (ELISA); format: cell-based; details: IL-1β 10 U/ml, 6 hours, inhibitor 1250, 2500 or 5000 nM
[2] = test system: IL-1β induced IL-6 secretion by human primary astrocytes; assay: IL-1β induced IL-6 secretion by human primary astrocytes (ELISA); format: cell-based; details: IL-1β 10 U/ml, 6 hours, inhibitor 1250, 2500 or 5000 nM
Description: IL-1β has been implicated in both the initiation and propagation of neuroinflammatory changes seen in Alzheimer's disease patients. One of the main mechanisms of IL-1β is the induction of interleukin 6 (IL-6) secretion, which propagates the neuroinflammatory response in Alzheimer's disease patients. Using primary human adult astrocytes this inflammatory response as well as modulators (i.e. potential drugs for therapy) can be studied in vitro. […] In the presence of IL-1β (10 U/ml) these cells secrete IL-6 in the culture supernatant, which can be measured by ELISA. […] Cells were incubated with or without IL-1β (10 U/ml) for 6 hours in the presence of different concentration of IRAK1/4 inhibitor I (1250, 2500, or 5000 nM). IL-6 levels (pg/ml) in the culture supernatants were determined by ELISA. Shown are mean levels +/− S.D. of three replicate stimulations.

## O=C(Nc1nc2ccccc2n1CCN1CCOCC1)c1cccc([N+](=O)[O-])c1 [IRAK1/4 inhibitor I]
[1]
  IL-6 secretion in culture supernatant: dose-dependently inhibits IL-6 secretion
[1]; listed as IRAK1/4 inhibitor
  IL-6 secretion in culture supernatant: reduced
[2]
  IL-6 secretion in culture supernatant: dose-dependently inhibits IL-6 secretion
[2]; listed as IRAK1/4 inhibitor
  IL-6 secretion in culture supernatant: reduced
